Measured values published in the NIST ThermoML archive (doi:10.1021/je100211s).

Test: mn = molality of the nth substance listed, in mol/kg
Settings: 101 kPa, Liquid; for viscosity: Capillary tube (Ostwald / Ubbelohde) method; for mass density: Vibrating tube method

CCCCCCCCCCCCCCCC[N+](C)(C)C.[Br-] [N,N,N-trimethyl-1-hexadecanaminium bromide] + O
Settings	mass density, 298.15 K [kg/m3]	mass density, 308.15 K [kg/m3]	mass density, 318.15 K [kg/m3]	viscosity, 298.15 K [mPa·s]	viscosity, 308.15 K [mPa·s]	viscosity, 318.15 K [mPa·s]
m1 = 0.001	997.2	994.2	990.4	0.899	0.744	0.617
m1 = 0.003	997.3	994.3	990.5	0.91	0.752	0.622
m1 = 0.005	997.4	994.4	990.6	0.921	0.76	0.635
